Experimental findings from patent US11970474B2, “Substituted benzodiazoles and use thereof in therapy” (THOMAS HELLEDAYS STIFTELSE FÖR MEDICINSK FORSKNING, priority 2018, dated 2024) are described below.

The structures appear in SMILES notation.

Chain of OGG1 (O15527 whole entry): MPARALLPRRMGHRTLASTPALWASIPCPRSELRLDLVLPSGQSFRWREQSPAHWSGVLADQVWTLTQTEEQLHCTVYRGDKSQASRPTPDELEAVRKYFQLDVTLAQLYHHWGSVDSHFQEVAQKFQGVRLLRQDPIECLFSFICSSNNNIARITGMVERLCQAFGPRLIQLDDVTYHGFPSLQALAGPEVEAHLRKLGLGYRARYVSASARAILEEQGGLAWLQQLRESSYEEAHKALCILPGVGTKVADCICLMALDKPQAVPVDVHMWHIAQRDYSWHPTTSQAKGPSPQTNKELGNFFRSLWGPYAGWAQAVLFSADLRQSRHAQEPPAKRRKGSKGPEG

The experiment deals with OGG1 (Homo sapiens (Human), UniProt O15527). In words: In vitro OGG1 activity assay. Particulars: 800 pM OGG1 enzyme, 2 nM human APEX1, 10 nM 8-oxoA:C substrate. The class given is biochemical. The procedure:
Method 1: In Vitro OGG1 Activity Assay OGG1 activity is assayed by measuring the increase in fluorescence from a duplex oligonucleotide containing an OGG1 substrate and a fluorophore in close proximity that are quenched by a quencher on the complementary strand. […] OGG1 activity releases the substrate base from DNA by cleaving the N-glycosidic bond between base and deoxyribose. The resulting apurinic site is cleaved by an excessive amount APEX1 activity which cause the duplex to melt, which in turn cause the fluorophore to become unquenched. Compounds to be tested are dissolved in DMSO and nano-dispensed directly into black 384-well plates, followed by transfer of enzyme and substrate solutions. […] The fluorescent signal is recorded in a plate reader equipped with suitable filters to register fluorescein fluorescence.
`NC(=O)c1ccc(NC(=O)[C@H]2CC[C@@H](n3c(=O)[nH]c4c(Br)cccc43)CC2)cc1` [Example 224, 4-[cis-4-(4-bromo-2-oxo-2,3-dihydro-1H-1,3-benzodiazol-1-yl)cyclohexaneamido]benzamide] displayed an IC50 of 3660 nM. The result for `CC(=O)Nc1cccc2c1[nH]c(=O)n2[C@H]1CC[C@@H](C(=O)Nc2ccc3[nH]ncc3c2)CC1` [Example 315, Cis-4-(4-acetamido-2-oxo-2,3-dihydro-1H-1,3-benzodiazol-1-yl)-N-(1H-indazol-5-yl)cyclohexane-1-carboxamide] reads 759 nM; that for `O=C(NCC(O)CO)c1cnn(-c2cccc3c2[nH]c(=O)n3C2CCN(C(=O)Nc3ccc(I)cc3)CC2)c1` (stereo not shown) [Example 90, 4-(4-{4-[(2,3-Dihydroxypropyl)carbamoyl]-1H-pyrazol-1-yl}-2-oxo-2,3-dihydro-1H-1,3-benzodiazol-1-yl)-N-(4-iodophenyl)piperidine-1-carboxamide], 218 nM; that for `Cc1cc(N)c(NC(=O)[C@H]2CC[C@@H](n3c(=O)[nH]c4c(Br)cccc43)CC2)cc1C` [Example 223, Cis-N-(2-amino-4,5-dimethylphenyl)-4-(4-bromo-2-oxo-2,3-dihydro-1H-1,3-benzodiazol-1-yl)cyclohexane-1-carboxamide], 1670 nM. Turning to `COc1cc(NC(=O)[C@H]2CC[C@@H](n3c(=O)[nH]c4c(NC(=O)c5cn(C)cn5)cccc43)CC2)ccc1C` [Example 319, 1-Methyl-N-{2-oxo-1-[cis-4-[(3-methoxy-4-methylphenyl)carbamoyl]cyclohexyl]-2,3-dihydro-1H-1,3-benzodiazol-4-yl}-1H-imidazole-4-carboxamide], the IC50 amounted to 20.3 nM. The same measure for `O=c1[nH]c2c(Br)cccc2n1[C@H]1CC[C@@H](C(=O)Nc2cccc3cn[nH]c23)CC1` [Example 186, Cis-4-(4-bromo-2-oxo-2,3-dihydro-1H-1,3-benzodiazol-1-yl)-N-(1H-indazol-7-yl)cyclohexane-1-carboxamide]: 2030 nM; for `O=c1[nH]c2c(Br)cccc2n1[C@H]1CC[C@@H](C(=O)Nc2ccc(C(F)(F)F)cc2)CC1` [Example 133, (Cis)-4-(4-bromo-2-oxo-2,3-dihydro-1H-1,3-benzodiazol-1-yl)-N-[4-(trifluoromethyl)phenyl]cyclohexane-1-carboxamide]: 865 nM. The same measure for `COc1cc(NC(=O)[C@H]2CC[C@@H](n3c(=O)[nH]c4c(C(=O)NCC5COCCN5)cccc43)CC2)ccc1C` (stereo partly drawn) [Example 292, N-[(Morpholin-3-yl)methyl]-2-oxo-1-[cis-4-[(3-methoxy-4-methylphenyl)carbamoyl]cyclohexyl]-2,3-dihydro-1H-1,3-benzodiazole-4-carboxamide]: 0.37 nM; for `COc1cc(NC(=O)N2CCC(n3c(=O)[nH]c4ccccc43)CC2)ccc1C` [Example 210, N-(3-Methoxy-4-methylphenyl)-4-(2-oxo-2,3-dihydro-1H-1,3-benzodiazol-1-yl)piperidine-1-carboxamide]: 9490 nM; for `COc1ncc(NC(=O)[C@H]2CC[C@@H](n3c(=O)[nH]c4c(OC)cccc43)CC2)cc1C` [Example 208, Cis-4-(4-methoxy-2-oxo-2,3-dihydro-1H-1,3-benzodiazol-1-yl)-N-(6-methoxy-5-methylpyridin-3-yl)cyclohexane-1-carboxamide]: 115 nM. The same measure for `COc1ccc(NC(=O)N2CCC(n3c(=O)[nH]c4cc(C#N)ccc43)CC2)cc1Cl` [Example 178, N-(3-Chloro-4-methoxyphenyl)-4-(5-cyano-2-oxo-2,3-dihydro-1H-1,3-benzodiazol-1-yl)piperidine-1-carboxamide]: 6920 nM; for `N#Cc1ccc(NC(=O)[C@H]2CC[C@@H](n3c(=O)[nH]c4c(Br)cccc43)CC2)cc1Cl` [Example 125, (Cis)-4-(4-bromo-2-oxo-2,3-dihydro-1H-1,3-benzodiazol-1-yl)-N-(3-chloro-4-cyanophenyl)cyclohexane-1-carboxamide]: 3620 nM. In turn, `CCOc1cccc2c1[nH]c(=O)n2C1CCN(C(=O)Nc2ccc(I)cc2)CC1` [Example 18, 4-(4-Ethoxy-2-oxo-2,3-dihydro-1H-1,3-benzodiazol-1-yl)-N-(4-iodophenyl)piperidine-1-carboxamide] returned an IC50 of 1390 nM. The same measure for `Cc1ccc(NC(=O)[C@H]2CC[C@@H](n3c(=O)[nH]c4c(Br)cccc43)CC2)cn1` [Example 190, Cis-4-(4-bromo-2-oxo-2,3-dihydro-1H-1,3-benzodiazol-1-yl)-N-(6-methylpyridin-3-yl)cyclohexane-1-carboxamide]: 467 nM. In turn, `COc1ccc(NC(=O)N2CCC(n3c(=O)[nH]c4c(-c5cnc6[nH]ncc6c5)cccc43)CC2)cc1Cl` [Example 101, N-(3-chloro-4-methoxyphenyl)-4-(2-oxo-4-{1H-pyrazolo[3,4-b]pyridin-5-yl}-2,3-dihydro-1H-1,3-benzodiazol-1-yl)piperidine-1-carboxamide] gave an IC50 of 2260 nM. Compared with the last molecule, the IC50 is about 4.8-fold higher. The same measure for `COc1cc(NC(=O)[C@H]2CC[C@@H](n3c(=O)[nH]c4c(NC(=O)c5ccnn5C)cccc43)CC2)ccc1C` [Example 321, 1-Methyl-N-{2-oxo-1-[cis-4-[(3-methoxy-4-methylphenyl)carbamoyl]cyclohexyl]-2,3-dihydro-1H-1,3-benzodiazol-4-yl}-1H-pyrazole-5-carboxamide]: 5.75 nM; for `COc1cc(NC(=O)N2CCC(n3c(=O)[nH]c4c(-c5cncc(N)c5)cccc43)CC2)ccc1Cl` [Example 104, 4-[4-(5-Aminopyridin-3-yl)-2-oxo-2,3-dihydro-1H-1,3-benzodiazol-1-yl]-N-(4-chloro-3-methoxyphenyl)piperidine-1-carboxamide]: 2280 nM. `COc1cc(NC(=O)[C@H]2CC[C@@H](n3c(=O)[nH]c4c(S(=O)(=O)CC(=O)O)cccc43)CC2)ccc1C` [Example 239, 2-({2-Oxo-1-[cis-4-[(3-methoxy-4-methylphenyl)carbamoyl]cyclohexyl]-2,3-dihydro-1H-1,3-benzodiazol-4-yl}sulfonyl)acetic acid] yielded an IC50 of 50.6 nM. Against the preceding molecule, the IC50 is about 45-fold lower. Molecule `COc1ccc(NC(=O)[C@H]2CC[C@@H](n3c(=O)[nH]c4c(Br)cccc43)CC2)c(F)c1` [Example 156, (Cis)-4-(4-bromo-2-oxo-2,3-dihydro-1H-1,3-benzodiazol-1-yl)-N-(2-fluoro-4-methoxyphenyl)cyclohexane-1-carboxamide] showed an IC50 of 173 nM. The result for `COc1cc(NC(=O)[C@H]2CC[C@@H](n3c(=O)[nH]c4c(NCC(F)(F)F)cccc43)CC2)ccc1C` [Example 323, Cis-N-(3-methoxy-4-methylphenyl)-4-{2-oxo-4-[(2,2,2-trifluoroethyl)amino]-2,3-dihydro-1H-1,3-benzodiazol-1-yl}cyclohexane-1-carboxamide] reads 226 nM; that for `COc1cc(NC(=O)[C@H]2CC[C@@H](n3c(=O)[nH]c4c(N5CCOCC5)cccc43)CC2)ccc1C` [Example 241, Cis-N-(3-methoxy-4-methylphenyl)-4-[4-(morpholin-4-yl)-2-oxo-2,3-dihydro-1H-1,3-benzodiazol-1-yl]cyclohexane-1-carboxamide], 960 nM.

For the molecule `COc1ccc(NC(=O)[C@H]2CC[C@@H](n3c(=O)[nH]c4ccc(F)cc43)CC2)cc1F` [Example 218, Cis-4-(6-fluoro-2-oxo-2,3-dihydro-1H-1,3-benzodiazol-1-yl)-N-(3-fluoro-4-methoxyphenyl)cyclohexane-1-carboxamide], the IC50 is 9010 nM.

In the case of `O=C(Nc1ccc(Cl)c(Cl)c1)N1CCC(n2c(=O)[nH]c3c(-c4ccc(C(=O)C(F)(F)F)cc4)cccc32)CC1` [Example 40, N-(3,4-dichlorophenyl)-4-{2-oxo-4-[4-(2,2,2-trifluoroacetyl)phenyl]-2,3-dihydro-1H-1,3-benzodiazol-1-yl}piperidine-1-carboxamide], the IC50 is 6320 nM. The result for `O=C(Nc1ccc(Cl)c(Cl)c1)N1CCC(n2c(=O)[nH]c3c(O)cccc32)CC1` [Example 9, N-(3,4-dichlorophenyl)-4-(4-hydroxy-2-oxo-2,3-dihydro-1H-1,3-benzodiazol-1-yl)piperidine-1-carboxamide] reads 796 nM. Molecule `O=C(O)c1ccc(-c2cccc3c2[nH]c(=O)n3C2CCN(C(=O)Nc3ccc(Cl)c(Cl)c3)CC2)cc1` [Example 35, 4-(1-{1-[(3,4-Dichlorophenyl)carbamoyl]piperidin-4-yl}-2-oxo-2,3-dihydro-1H-1,3-benzodiazol-4-yl)benzoic acid] had an IC50 of 1970 nM. This IC50 lies about 2.5-fold higher than the previous one. The result for `NCc1ccc(-c2cccc3c2[nH]c(=O)n3C2CCN(C(=O)Nc3ccc(Cl)c(Cl)c3)CC2)cc1` [Example 33, 4-{4-[4-(Aminomethyl)phenyl]-2-oxo-2,3-dihydro-1H-1,3-benzodiazol-1-yl}-N-(3,4-dichlorophenyl)piperidine-1-carboxamide] reads 2530 nM; that for `CNCCN(C)C(=O)c1cccc2c1[nH]c(=O)n2[C@H]1CC[C@@H](C(=O)Nc2ccc(C)c(OC)c2)CC1` [Example 266, N-Methyl-N-[2-(methylamino)ethyl]-2-oxo-1-[cis-4-[(3-methoxy-4-methylphenyl)carbamoyl]cyclohexyl]-2,3-dihydro-1H-1,3-benzodiazole-4-carboxamide], 8.16 nM; that for `COc1cc(NC(=O)[C@H]2CC[C@@H](n3c(=O)[nH]c4c(C(=O)NCCCN)cccc43)CC2)ccc1C` [Example 265, N-(3-Aminopropyl)-2-oxo-1-[cis-4-[(3-methoxy-4-methylphenyl)carbamoyl]cyclohexyl]-2,3-dihydro-1H-1,3-benzodiazole-4-carboxamide], 0.28 nM.
